pIC50: −log10 of the molar value. Counter-ions that a name gives are not always drawn.

The text below walks through data of patent US10428080B2, “TBK/IKK inhibitor compounds and uses thereof” (Merck Patent GmbH, priority 2015, dated 2019).

For one test, the target named is T1, IKKε (Homo sapiens, UniProt Q14164).
T1 sequence (Q14164 1-716): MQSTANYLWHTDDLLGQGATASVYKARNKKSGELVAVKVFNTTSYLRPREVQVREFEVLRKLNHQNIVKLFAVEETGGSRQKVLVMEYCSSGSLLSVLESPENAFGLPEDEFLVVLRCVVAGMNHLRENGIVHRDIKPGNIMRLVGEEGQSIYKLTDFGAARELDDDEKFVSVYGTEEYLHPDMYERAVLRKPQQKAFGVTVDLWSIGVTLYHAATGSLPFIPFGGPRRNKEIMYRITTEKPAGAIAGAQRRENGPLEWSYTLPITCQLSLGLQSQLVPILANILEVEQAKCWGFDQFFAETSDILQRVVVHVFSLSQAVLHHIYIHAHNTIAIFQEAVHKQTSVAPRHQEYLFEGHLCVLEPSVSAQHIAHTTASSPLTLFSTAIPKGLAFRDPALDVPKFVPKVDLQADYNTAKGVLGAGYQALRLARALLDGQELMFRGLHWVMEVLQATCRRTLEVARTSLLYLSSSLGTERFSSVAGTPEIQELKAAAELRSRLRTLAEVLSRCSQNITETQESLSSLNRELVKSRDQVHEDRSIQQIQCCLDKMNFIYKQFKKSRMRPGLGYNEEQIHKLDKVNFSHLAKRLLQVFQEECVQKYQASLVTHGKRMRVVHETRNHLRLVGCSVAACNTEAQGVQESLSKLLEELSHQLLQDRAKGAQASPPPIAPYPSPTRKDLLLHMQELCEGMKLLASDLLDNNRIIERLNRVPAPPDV
Nature of the test: IKKe Biochemical Assay. Conditions: read-out: IKKε IC50. Put shortly: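 Recombinant IKKε and substrate were incubated with compound (10-point 1:4 series, top 30 uM final, 1% DMSO) for 90 min at 25° C, then stopped. Substrate-to-product conversion was read by LabChip microfluidic mobility shift; 10 uM staurosporine served as full-inhibition wells.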

In the next test the target is T2, TBK1 (Homo sapiens, UniProt Q9UHD2).
T2 sequence (Q9UHD2 1-729): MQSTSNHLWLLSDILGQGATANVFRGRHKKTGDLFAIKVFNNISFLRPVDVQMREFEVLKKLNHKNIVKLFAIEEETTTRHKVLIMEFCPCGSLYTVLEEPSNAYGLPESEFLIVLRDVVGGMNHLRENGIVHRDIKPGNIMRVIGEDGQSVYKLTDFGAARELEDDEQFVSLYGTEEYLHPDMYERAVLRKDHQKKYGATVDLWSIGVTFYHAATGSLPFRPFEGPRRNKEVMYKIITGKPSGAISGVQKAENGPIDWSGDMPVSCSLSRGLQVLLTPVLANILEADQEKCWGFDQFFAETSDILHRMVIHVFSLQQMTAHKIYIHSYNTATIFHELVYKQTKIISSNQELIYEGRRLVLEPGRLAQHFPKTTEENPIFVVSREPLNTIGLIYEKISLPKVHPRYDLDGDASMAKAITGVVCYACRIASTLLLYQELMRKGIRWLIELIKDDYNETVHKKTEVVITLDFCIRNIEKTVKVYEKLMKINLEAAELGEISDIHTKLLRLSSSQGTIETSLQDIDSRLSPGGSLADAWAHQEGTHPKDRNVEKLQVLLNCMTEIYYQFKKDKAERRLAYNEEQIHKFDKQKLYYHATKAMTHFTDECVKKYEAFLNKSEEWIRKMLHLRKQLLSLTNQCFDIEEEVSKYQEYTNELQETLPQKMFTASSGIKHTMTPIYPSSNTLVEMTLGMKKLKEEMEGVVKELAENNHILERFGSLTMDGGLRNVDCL
Kind of test: TBK Biochemical Assay. Conditions: read-out: TBK1 IC50. The gist of the method: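 TBK1 enzyme and substrate incubated with compounds (10-point 1:4 dilution, top 30 uM final, 1% DMSO) for 90 min at 25° C, then stopped. Substrate/product peaks read by microfluidic mobility-shift (Caliper LabChip); 10 uM staurosporine as full-inhibition control.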

On to `CN(C)C(=O)c1ccc(-c2cc3nccc(-c4ccc(C5(N6CCOCC6)CC5)c(C#N)c4)c3o2)cc1` [Compound 287, 4-(7-[3-cyano-4-[1-(morpholin-4-yl)cyclopropyl]phenyl]furo[3,2-b]pyridin-2-yl)-N,N-dimethylbenzamide hydrochloride], for which the pIC50 at IKKε and on TBK1 was below 5.30 in each case.

With `COc1cc(C(=O)N(C)CCO)ccc1-c1cc2ncc(C3CC3)c(-c3ccc(NC4CCOCC4)c(C#N)c3)c2o1` [Compound 305, 4-(7-[3-cyano-4-[(oxan-4-yl)amino]phenyl]-6-cyclopropylfuro[3,2-b]pyridin-2-yl)-N-(2-hydroxyethyl)-3-methoxy-N-methylbenzamide], the pIC50 on IKKε and at TBK1 was below 5.30 in each case.

On to `COc1cc(C(=O)N(C)CCO)ccc1-c1cc2ncc(C3CC3)c(-c3ccc(OC4CCOCC4)c(C#N)c3)c2o1` [Compound 306, 4-(7-(3-cyano-4-(tetrahydro-2H-pyran-4-yloxy)phenyl)-6-cyclopropylfuro[3,2-b]pyridin-2-yl)-N-(2-hydroxyethyl)-3-methoxy-N-methylbenzamide], for which the pIC50 on IKKε and at TBK1 was below 5.30 throughout.

Regarding `COc1cc(C(=O)N(C)C)ccc1-c1cc2nccc(-c3cc(C#N)c(OC4CCOCC4)c(C4CC4)c3)c2o1` [Compound 307, 4-(7-(3-cyano-5-cyclopropyl-4-(tetrahydro-2H-pyran-4-yloxy)phenyl)furo[3,2-b]pyridin-2-yl)-3-methoxy-N,N-dimethylbenzamide], the pIC50 at IKKε and at TBK1 was 6.00 to 7.00 throughout.

Take `COc1cc(C(=O)N(C)C)ccc1-c1cc2nccc(-c3cc(C#N)c(NC4CCOCC4)c(C4CC4)c3)c2o1` [Compound 308, 4-(7-(3-cyano-5-cyclopropyl-4-(tetrahydro-2H-pyran-4-ylamino)phenyl)furo[3,2-b]pyridin-2-yl)-3-methoxy-N,N-dimethylbenzamide]: the pIC50 on IKKε and on TBK1 was below 5.30 throughout.

Take `COc1cc(C(=O)N(C)C)cnc1-c1cc2ncc(C)c(-c3ccc(NC4CCOCC4)c(C#N)c3)c2o1` [Compound 319, 6-(7-(3-cyano-4-(tetrahydro-2H-pyran-4-ylamino)phenyl)-6-methylfuro[3,2-b]pyridin-2-yl)-5-methoxy-N,N-dimethylnicotinamide]: the pIC50 at IKKε and on TBK1 was 5.30 to 6.00 each time.

For `COc1cc(C(=O)N(C)C)cnc1-c1cc2ncc(C)c(-c3ccc(OC4CCOCC4)c(C#N)c3)c2o1` [Compound 320, 6-(7-(3-cyano-4-(tetrahydro-2H-pyran-4-yloxy)phenyl)-6-methylfuro[3,2-b]pyridin-2-yl)-5-methoxy-N,N-dimethylnicotinamide], the pIC50 at IKKε and on TBK1 was 5.30 to 6.00 throughout.

For the compound `COc1cc(C(=O)N(C)C)cnc1-c1cc2ncc(C)c(-c3ccc(OC4CCOCC4)c(C#N)n3)c2o1` [Compound 321, 6-[7-[6-cyano-5-(oxan-4-yloxy)pyridin-2-yl]-6-methylfuro[3,2-b]pyridin-2-yl]-5-methoxy-N,N-dimethylpyridine-3-carboxamide hydrochloride], the pIC50 at IKKε and at TBK1 was 6.00 to 7.00 throughout.

Consider `COc1cc(C(=O)N(C)C)cnc1-c1cc2ncc(C3CC3)c(-c3ccc(OC4CCOCC4)c(C#N)c3)c2o1` [Compound 323, 6-(7-(3-cyano-4-(tetrahydro-2H-pyran-4-yloxy)phenyl)-6-cyclopropylfuro[3,2-b]pyridin-2-yl)-5-methoxy-N,N-dimethylnicotinamide], for which the pIC50 at IKKε and on TBK1 was below 5.30 throughout.

Take `COc1cc(C(=O)N(C)CCO)cnc1-c1cc2ncc(C)c(-c3ccc(OC4CCOCC4)c(C#N)c3)c2o1` [Compound 330, 6-(7-(3-cyano-4-(tetrahydro-2H-pyran-4-yloxy)phenyl)-6-methylfuro[3,2-b]pyridin-2-yl)-N-(2-hydroxyethyl)-5-methoxy-N-methylnicotinamide]: the pIC50 at IKKε and on TBK1 was 5.30 to 6.00 each time.
